US11883411B2 (priority 2022, dated 2024)
Entries after “also recorded” stand apart in the source; their conditions may differ.

How the values were obtained:
ASFV fluorescent virus [1] = experiment: microbe, parasite or virus in culture; type: cell-based, African swine fever virus (ASFV)
p30 protein of ASFV = type: cell-based, African swine fever virus (ASFV)
ASFV fluorescent virus [2] = type: cell-based, African swine fever virus (ASFV)
PAM cells = conditions: pig
D1133L RNA of ASFV = type: cell-based
p72 protein of ASFV = type: cell-based, African swine fever virus (ASFV)
ASFV fluorescent virus [3] = type: cell-based, African swine fever virus (ASFV); remark: listed apart in the source
D1133L protein of ASFV = type: cell-based

SMILES: C[C@@H](O[C@H]1OCCN(Cc2n[nH]c(=O)[nH]2)[C@H]1c1ccc(F)cc1)c1cc(C(F)(F)F)cc(C(F)(F)F)c1 [aprepitant, 5-[2(R)-[1(R)-[3,5-bis(trifluoromethyl)phenyl]ethoxy]-3(S)-(4-fluorophenyl)morpholino-4-ylmethyl]-3,4-dihydro-2H-1,2,4-triazol-3-one]
- ASFV genome copy number (ASFV fluorescent virus [1]): reduced
- inhibition at 22 µM (ASFV fluorescent virus [1]; African swine fever virus, 48 h, read-out: inhibition of ASFV genome copy number): > 50%
- expression level of p30 protein (p30 protein of ASFV): significantly decreased
- fluorescence of ASFV fluorescent virus in infected cells (ASFV fluorescent virus [2]): gradually becomes darker; also recorded: completely disappears
- cell viability (PAM cells): more than 50%
- inhibition rate of D1133L RNA expression level (D1133L RNA of ASFV): higher than 50%
- expression level of p72 protein (p72 protein of ASFV): significantly decreased
- TCID50 of ASFV fluorescent virus (ASFV fluorescent virus [3]): reduce the TCID50; also recorded: minimum
- expression level of D1133L protein (D1133L protein of ASFV): significantly decreased
